How the values were obtained:
Type in all cases: functional
Digitaria [1] = experiment: Post-emergence herbicidal activity against one-leaf stage of Digitaria adscendens under greenhouse condition at 750 g /ha measured after 24 days by spray method; conditions: in Digitaria adscendens, 576 h, read-out: GI
Echinochloa crus-galli [2] = experiment: Post-emergence herbicidal activity against one-leaf stage of Echinochloa crus-galli (barnyard grass) under greenhouse condition at 750 g /ha measured after 24 days by spray method; conditions: 576 h, read-out: GI
Amaranthus retroflexus [3] = experiment: Post-emergence herbicidal activity against one-leaf stage of Amaranthus retroflexus under greenhouse condition at 750 g /ha measured after 24 days by spray method; conditions: 576 h, read-out: GI
[4] = tested on: Brassica rapa subsp. oleifera; experiment: Post-emergence herbicidal activity against one-leaf stage Brassica rapa subsp. oleifera under greenhouse condition at 750 g /ha measured after 24 days by spray method; conditions: 576 h, read-out: GI
Digitaria [5] = experiment: Pre-emergence herbicidal activity against Digitaria adscendens under greenhouse condition at 750 g /ha measured after 24 days by spray method; conditions: in Digitaria adscendens, 576 h, read-out: GI
Echinochloa crus-galli [6] = experiment: Pre-emergence herbicidal activity against Echinochloa crus-galli (barnyard grass) under greenhouse condition at 750 g /ha measured after 24 days by spray method; conditions: 576 h, read-out: GI
Amaranthus retroflexus [7] = experiment: Pre-emergence herbicidal activity against Amaranthus retroflexus under greenhouse condition at 750 g /ha measured after 24 days by spray method; conditions: 576 h, read-out: GI
[8] = tested on: Brassica rapa subsp. oleifera; experiment: Pre-emergence herbicidal activity against Brassica rapa subsp. oleifera under greenhouse condition at 750 g /ha measured after 24 days by spray method; conditions: 576 h, read-out: GI
Spirodela polyrhiza [9] = experiment: Bleaching herbicidal activity in Spirodela polyrhiza fronds cultured in compound-containing in medium assessed as chlorophyll inhibition at 1 ug/ml after 7 days; conditions: 168 h
Spirodela polyrhiza [10] = experiment: Bleaching herbicidal activity in Spirodela polyrhiza fronds cultured in compound-containing in medium assessed as chlorophyll inhibition at 10 ug/ml after 7 days; conditions: 168 h

Cc1cc(-c2cccc(C(F)(F)F)c2)c(OCc2ccc(F)cc2)nn1
inhibition of growth at 750 g/ha (Digitaria [1]): 56%
inhibition of growth at 750 g/ha (Echinochloa crus-galli [2]): 2%
inhibition of growth at 750 g/ha (Amaranthus retroflexus [3]): 41%
inhibition of growth at 750 g/ha [4]: 87%
inhibition of growth at 750 g/ha (Digitaria [5]): 0%
inhibition of growth at 750 g/ha (Echinochloa crus-galli [6]): 24%
inhibition of growth at 750 g/ha (Amaranthus retroflexus [7]): 8%
inhibition of growth at 750 g/ha [8]: 8%
inhibition at 1 µg/mL (Spirodela polyrhiza [9]): 76%
inhibition at 10 µg/mL (Spirodela polyrhiza [10]): 87%

Cc1cc(-c2cccc(C(F)(F)F)c2)c(Oc2ccccc2-c2ccccc2)nn1
inhibition of growth at 750 g/ha (Digitaria [1]): 0%
inhibition of growth at 750 g/ha (Echinochloa crus-galli [2]): 0%
inhibition of growth at 750 g/ha (Amaranthus retroflexus [3]): 25%
inhibition of growth at 750 g/ha [4]: 0%
inhibition of growth at 750 g/ha (Digitaria [5]): 0%
inhibition of growth at 750 g/ha (Echinochloa crus-galli [6]): 0%
inhibition of growth at 750 g/ha (Amaranthus retroflexus [7]): 18%
inhibition of growth at 750 g/ha [8]: 0%
inhibition at 1 µg/mL (Spirodela polyrhiza [9]): 29%
inhibition at 10 µg/mL (Spirodela polyrhiza [10]): 33%

Cc1cc(-c2cccc(C(F)(F)F)c2)c(OCc2cccc(Br)c2)nn1
inhibition of growth at 750 g/ha (Digitaria [1]): 3%
inhibition of growth at 750 g/ha (Echinochloa crus-galli [2]): 4%
inhibition of growth at 750 g/ha (Amaranthus retroflexus [3]): 39%
inhibition of growth at 750 g/ha [4]: 65%
inhibition of growth at 750 g/ha (Digitaria [5]): 0%
inhibition of growth at 750 g/ha (Echinochloa crus-galli [6]): 7%
inhibition of growth at 750 g/ha (Amaranthus retroflexus [7]): 0%
inhibition of growth at 750 g/ha [8]: 0%
inhibition at 1 µg/mL (Spirodela polyrhiza [9]): 66%
inhibition at 10 µg/mL (Spirodela polyrhiza [10]): 83%

COc1cccc(COc2nnc(C)cc2-c2cccc(C(F)(F)F)c2)c1
inhibition of growth at 750 g/ha (Digitaria [1]): 0%
inhibition of growth at 750 g/ha (Echinochloa crus-galli [2]): 5%
inhibition of growth at 750 g/ha (Amaranthus retroflexus [3]): 12%
inhibition of growth at 750 g/ha [4]: 9%
inhibition of growth at 750 g/ha (Digitaria [5]): 0%
inhibition of growth at 750 g/ha (Echinochloa crus-galli [6]): 20%
inhibition of growth at 750 g/ha (Amaranthus retroflexus [7]): 0%
inhibition of growth at 750 g/ha [8]: 0%
inhibition at 1 µg/mL (Spirodela polyrhiza [9]): 5%
inhibition at 10 µg/mL (Spirodela polyrhiza [10]): 23%

Cc1cc(-c2cccc(C(F)(F)F)c2)c(Oc2c(C)cccc2C)nn1
inhibition of growth at 750 g/ha (Digitaria [1]): 0%
inhibition of growth at 750 g/ha (Echinochloa crus-galli [2]): 0%
inhibition of growth at 750 g/ha (Amaranthus retroflexus [3]): 34%
inhibition of growth at 750 g/ha [4]: 0%
inhibition of growth at 750 g/ha (Digitaria [5]): 13%
inhibition of growth at 750 g/ha (Echinochloa crus-galli [6]): 2%
inhibition of growth at 750 g/ha (Amaranthus retroflexus [7]): 19%
inhibition of growth at 750 g/ha [8]: 0%
inhibition at 1 µg/mL (Spirodela polyrhiza [9]): 8%
inhibition at 10 µg/mL (Spirodela polyrhiza [10]): 9%

Cc1cc(-c2cccc(C(F)(F)F)c2)c(OCc2ccccc2F)nn1
inhibition of growth at 750 g/ha (Digitaria [1]): 0%
inhibition of growth at 750 g/ha (Echinochloa crus-galli [2]): 19%
inhibition of growth at 750 g/ha (Amaranthus retroflexus [3]): 39%
inhibition of growth at 750 g/ha [4]: 79%
inhibition of growth at 750 g/ha (Digitaria [5]): 10%
inhibition of growth at 750 g/ha (Echinochloa crus-galli [6]): 13%
inhibition of growth at 750 g/ha (Amaranthus retroflexus [7]): 4%
inhibition of growth at 750 g/ha [8]: 28%
inhibition at 1 µg/mL (Spirodela polyrhiza [9]): 65%
inhibition at 10 µg/mL (Spirodela polyrhiza [10]): 71%

Cc1cc(-c2cccc(C(F)(F)F)c2)c(OCc2ccc(Cl)cc2Cl)nn1
inhibition of growth at 750 g/ha (Digitaria [1]): 0%
inhibition of growth at 750 g/ha (Echinochloa crus-galli [2]): 0%
inhibition of growth at 750 g/ha (Amaranthus retroflexus [3]): 35%
inhibition of growth at 750 g/ha [4]: 43%
inhibition of growth at 750 g/ha (Digitaria [5]): 0%
inhibition of growth at 750 g/ha (Echinochloa crus-galli [6]): 18%
inhibition of growth at 750 g/ha (Amaranthus retroflexus [7]): 3%
inhibition of growth at 750 g/ha [8]: 2%
inhibition at 1 µg/mL (Spirodela polyrhiza [9]): 38%
inhibition at 10 µg/mL (Spirodela polyrhiza [10]): 44%

Cc1ccc(COc2nnc(C)cc2-c2cccc(C(F)(F)F)c2)cc1
inhibition of growth at 750 g/ha (Digitaria [1]): 0%
inhibition of growth at 750 g/ha (Echinochloa crus-galli [2]): 6%
inhibition of growth at 750 g/ha (Amaranthus retroflexus [3]): 22%
inhibition of growth at 750 g/ha [4]: 41%
inhibition of growth at 750 g/ha (Digitaria [5]): 4%
inhibition of growth at 750 g/ha (Echinochloa crus-galli [6]): 28%
inhibition of growth at 750 g/ha (Amaranthus retroflexus [7]): 9%
inhibition of growth at 750 g/ha [8]: 0%
inhibition at 1 µg/mL (Spirodela polyrhiza [9]): 20%
inhibition at 10 µg/mL (Spirodela polyrhiza [10]): 31%

Cc1cc(-c2cccc(C(F)(F)F)c2)c(Oc2ccccc2Br)nn1
inhibition of growth at 750 g/ha (Digitaria [1]): 21%
inhibition of growth at 750 g/ha (Echinochloa crus-galli [2]): 30%
inhibition of growth at 750 g/ha (Amaranthus retroflexus [3]): 0%
inhibition of growth at 750 g/ha [4]: 34%
inhibition of growth at 750 g/ha (Digitaria [5]): 7%
inhibition of growth at 750 g/ha (Echinochloa crus-galli [6]): 0%
inhibition of growth at 750 g/ha (Amaranthus retroflexus [7]): 0%
inhibition of growth at 750 g/ha [8]: 0%
inhibition at 1 µg/mL (Spirodela polyrhiza [9]): 0%
inhibition at 10 µg/mL (Spirodela polyrhiza [10]): 78%

Cc1cc(C)cc(Oc2nnc(C)cc2-c2cccc(C(F)(F)F)c2)c1
inhibition of growth at 750 g/ha (Digitaria [1]): 0%
inhibition of growth at 750 g/ha (Echinochloa crus-galli [2]): 6%
inhibition of growth at 750 g/ha (Amaranthus retroflexus [3]): 8%
inhibition of growth at 750 g/ha [4]: 56%
inhibition of growth at 750 g/ha (Digitaria [5]): 11%
inhibition of growth at 750 g/ha (Echinochloa crus-galli [6]): 10%
inhibition of growth at 750 g/ha (Amaranthus retroflexus [7]): 10%
inhibition of growth at 750 g/ha [8]: 0%
inhibition at 1 µg/mL (Spirodela polyrhiza [9]): 42%
inhibition at 10 µg/mL (Spirodela polyrhiza [10]): 63%

Cc1cc(-c2cccc(C(F)(F)F)c2)c(OCc2cccc(Cl)c2)nn1
inhibition of growth at 750 g/ha (Digitaria [1]): 0%
inhibition of growth at 750 g/ha (Echinochloa crus-galli [2]): 0%
inhibition of growth at 750 g/ha (Amaranthus retroflexus [3]): 31%
inhibition of growth at 750 g/ha [4]: 33%
inhibition of growth at 750 g/ha (Digitaria [5]): 2%
inhibition of growth at 750 g/ha (Echinochloa crus-galli [6]): 36%
inhibition of growth at 750 g/ha (Amaranthus retroflexus [7]): 18%
inhibition of growth at 750 g/ha [8]: 0%
inhibition at 1 µg/mL (Spirodela polyrhiza [9]): 29%
inhibition at 10 µg/mL (Spirodela polyrhiza [10]): 45%
